Source: the supplement of paper PMC11451515

Tested on: SEM cells
Test: cell viability relative to DMSO control; higher = less cytotoxic
Conditions: 48 h
How it was run: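 NOMO1, SEM and P12-Ichikawa leukemia cells spent at least four passages adapting to each medium before use. They were seeded at 500 cells/well (NOMO1, SEM) or 1000 cells/well (P12-Ichikawa) in 5 μl in 1536-well plates and pin-dosed with library compounds in DMSO at 11 threefold steps from 47 μM down to 0.79 nM. After 48 h at 37°C, CellTiter-Glo One luminescence was read. Viability is reported as a percentage of the DMSO wells on each plate, with cell-free wells as background.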

[1] = HPLM + 10% dialyzed FBS, 0.000781 µM
[2] = HPLM + 10% dialyzed FBS, 0.00234 µM
[3] = HPLM + 10% dialyzed FBS, 0.00702 µM
[4] = HPLM + 10% dialyzed FBS, 0.0211 µM
[5] = HPLM + 10% dialyzed FBS, 0.0632 µM
[6] = HPLM + 10% dialyzed FBS, 0.19 µM
[7] = HPLM + 10% dialyzed FBS, 0.569 µM
[8] = HPLM + 10% dialyzed FBS, 1.71 µM
[9] = HPLM + 10% dialyzed FBS, 5.12 µM
[10] = HPLM + 10% dialyzed FBS, 15.4 µM
[11] = HPLM + 10% dialyzed FBS, 46.1 µM
[12] = RPMI 5 mM glucose + 10% FBS, 0.000781 µM
[13] = RPMI 5 mM glucose + 10% FBS, 0.00234 µM
[14] = RPMI 5 mM glucose + 10% FBS, 0.00702 µM
[15] = RPMI 5 mM glucose + 10% FBS, 0.0211 µM
[16] = RPMI 5 mM glucose + 10% FBS, 0.0632 µM
[17] = RPMI 5 mM glucose + 10% FBS, 0.19 µM
[18] = RPMI 5 mM glucose + 10% FBS, 0.569 µM
[19] = RPMI 5 mM glucose + 10% FBS, 1.71 µM
[20] = RPMI 5 mM glucose + 10% FBS, 5.12 µM
[21] = RPMI 5 mM glucose + 10% FBS, 15.4 µM
[22] = RPMI 5 mM glucose + 10% FBS, 46.1 µM
[23] = RPMI 5 mM glucose + 10% dialyzed FBS, 0.000781 µM
[24] = RPMI 5 mM glucose + 10% dialyzed FBS, 0.00234 µM
[25] = RPMI 5 mM glucose + 10% dialyzed FBS, 0.00702 µM
[26] = RPMI 5 mM glucose + 10% dialyzed FBS, 0.0211 µM
[27] = RPMI 5 mM glucose + 10% dialyzed FBS, 0.0632 µM
[28] = RPMI 5 mM glucose + 10% dialyzed FBS, 0.19 µM
[29] = RPMI 5 mM glucose + 10% dialyzed FBS, 0.569 µM
[30] = RPMI 5 mM glucose + 10% dialyzed FBS, 1.71 µM
[31] = RPMI 5 mM glucose + 10% dialyzed FBS, 5.12 µM
[32] = RPMI 5 mM glucose + 10% dialyzed FBS, 15.4 µM
[33] = RPMI 5 mM glucose + 10% dialyzed FBS, 46.1 µM

| Structure (SMILES) | cell viability [1] [%] | cell viability [2] [%] | cell viability [3] [%] | cell viability [4] [%] | cell viability [5] [%] | cell viability [6] [%] | cell viability [7] [%] | cell viability [8] [%] | cell viability [9] [%] | cell viability [10] [%] | cell viability [11] [%] | cell viability [12] [%] | cell viability [13] [%] | cell viability [14] [%] | cell viability [15] [%] | cell viability [16] [%] | cell viability [17] [%] | cell viability [18] [%] | cell viability [19] [%] | cell viability [20] [%] | cell viability [21] [%] | cell viability [22] [%] | cell viability [23] [%] | cell viability [24] [%] | cell viability [25] [%] | cell viability [26] [%] | cell viability [27] [%] | cell viability [28] [%] | cell viability [29] [%] | cell viability [30] [%] | cell viability [31] [%] | cell viability [32] [%] | cell viability [33] [%] |
| --- | --- | --- | --- | --- | --- | --- | --- | --- | --- | --- | --- | --- | --- | --- | --- | --- | --- | --- | --- | --- | --- | --- | --- | --- | --- | --- | --- | --- | --- | --- | --- | --- | --- |
| OC(=O)\C1=C\N(C2=CC=C(F)C=C2)C3=C(C=C(F)C(=C3)N4CCNCC4)C1=O | 89.5 | 101 | 100 | 101 | 105 | 90.7 | 82.4 | 89.4 | 86.4 | 90 | 93.9 | 101 | 108 | 120 | 92.1 | 114 | 112 | 97.2 | 95.7 | 110 | 113 | 103 | 103 | 103 | 112 | 125 | 107 | 111 | 87.5 | 113 | 95.3 | 95.1 | 87.3 |
| COc1cc2nc(N3CCCN(C)CC3)nc(NC3CCN(Cc4ccccc4)CC3)c2cc1OC | 92.1 | 122 | 129 | 111 | 130 | 119 | 125 | 98.1 | 60.1 | 37.5 | 10.2 | 104 | 116 | 140 | 113 | 132 | 127 | 143 | 97.7 | 108 | 44.8 | 11.5 | 112 | 117 | 131 | 104 | 128 | 132 | 132 | 131 | 92.3 | 55.9 | 19.1 |
| CCOc1ccc(Nc2nc(-c3c(C)nc4ccccn34)cs2)cc1 | 98.8 | 105 | 111 | 89.9 | 38.5 | 22.3 | 20.4 | 21.1 | 20.1 | 23.5 | 22.9 | 114 | 107 | 112 | 94.8 | 46.8 | 14.5 | 15.6 | 13.3 | 15.7 | 14.3 | 10.9 | 116 | 94.7 | 96.5 | 110 | 91.1 | 26.8 | 24.3 | 20.7 | 19.1 | 19.7 | 18.8 |
| C[C@@H](O)[C@@H]1[C@H]2[C@@H](C)\C(=C(/N2C1=O)C(=O)OCOC(=O)C(C)(C)C)SC3CN(C3)/C4=N/CCS4 | 74.8 | 95.7 | 99.2 | 112 | 117 | 102 | 101 | 108 | 107 | 97.2 | 82.1 | 88.7 | 114 | 119 | 117 | 101 | 116 | 111 | 125 | 117 | 109 | 72.8 | 82.5 | 109 | 120 | 113 | 122 | 138 | 106 | 113 | 121 | 121 | 85.9 |
| C[C@@]12O[C@@H](C[C@]1(O)CO)n1c3ccccc3c3c4c(c5c6ccccc6n2c5c31)CNC4=O | 117 | 125 | 127 | 109 | 89.7 | 65.5 | 27.3 | 18.4 | 14.8 | 11.8 | 7.23 | – | – | – | – | – | – | – | – | – | – | – | 118 | 111 | 96.4 | 106 | 65 | 52.1 | 20.2 | 13 | 8.04 | 6.86 | 5.81 |
| CN(C)C(=O)c1ccc([S+](=O)([O-])c2ccc(NC(=O)[C@@](C)(O)C(F)(F)F)c(Cl)c2)cc1 | 98.1 | 105 | 104 | 112 | 110 | 104 | 129 | 120 | 118 | 116 | 80 | 95.3 | 122 | 110 | 109 | 124 | 108 | 112 | 123 | 120 | 24.3 | 4.66 | 99.3 | 98.8 | 108 | 102 | 107 | 88 | 103 | 111 | 111 | 72.8 | 20.9 |
| CN1\C(=C(\O)C2=C(C=CS2)[S+]1([O-])=O)C(=O)NC3=CC=CC=N3 | 106 | 108 | 112 | 103 | 114 | 112 | 109 | 105 | 106 | 98.4 | 102 | 95 | 107 | 112 | 100 | 114 | 101 | 112 | 103 | 103 | 108 | 90.9 | 110 | 95.5 | 112 | 108 | 107 | 112 | 104 | 112 | 106 | 106 | 103 |
| CN(C/C=C/C#CC(C)(C)C)Cc1cccc2ccccc12 | 81.5 | 84.7 | 93 | 92.4 | 96.3 | 101 | 114 | 94 | 107 | 100 | 98.3 | 72.2 | 99.6 | 86.7 | 94.2 | 93.3 | 101 | 105 | 105 | 95 | 76.5 | 99.4 | 81 | 90.4 | 85.9 | 98.9 | 110 | 95.6 | 96.6 | 104 | 117 | 104 | 95 |
| C1CCC(C(CC2CCCCN2)C2CCCCC2)CC1 (centres undefined) | 82.6 | 92.2 | 94.9 | 98.3 | 104 | 110 | 93.5 | 96.9 | 118 | 54.1 | 7.7 | 94.4 | 122 | 93 | 113 | 116 | 117 | 110 | 112 | 111 | 45.1 | 19.6 | 85.7 | 93.9 | 91.7 | 85.5 | 100 | 86.6 | 96.8 | 110 | 89.9 | 37.7 | 34 |
| CC1(C)OC2CC3C4CC(F)C/5=C/C(=O)/C=C\C5(C)C4C(O)CC3(C)[C@@]2(O1)C(=O)CO (some centres undefined) | 97.4 | 95.3 | 95.6 | 102 | 94.6 | 85.9 | 77.2 | 65.9 | 65.7 | 33.9 | 71.1 | 91.4 | 98.9 | 104 | 105 | 101 | 77.5 | 60.7 | 56 | 59.6 | 20.5 | 60.3 | 109 | 95.4 | 122 | 125 | 106 | 78 | 75.4 | 62.7 | 55.9 | 26 | 61.6 |
| C=CC1=C(C(=O)O)N2C(=O)[C@@H](NC(=O)/C(=N\O)c3csc(N)n3)[C@H]2SC1 | 80.6 | 81.9 | 20.4 | 86.1 | 87.3 | 98.9 | 89.8 | 91.1 | 83.1 | 93.4 | 95.7 | 87.5 | 107 | 10.3 | 104 | 96.7 | 109 | 102 | 108 | 121 | 98.7 | 106 | 83.1 | 86.6 | 27.4 | 108 | 94.5 | 107 | 97.1 | 101 | 116 | 112 | 101 |
| CNC1[C@@H](O)C(O[C@@H]2C(O)C(O[C@H]3O[C@H]([C@@H](C)NC)CC[C@H]3N)[C@@H](N)C[C@H]2N)OC[C@]1(C)O (some centres undefined) | 99.8 | 96.4 | 99.2 | 95.1 | 113 | 106 | 93.2 | 97.7 | 92.9 | 88.5 | 80.8 | 105 | 120 | 94.2 | 101 | 92.2 | 103 | 97.9 | 83.3 | 90.4 | 86.1 | 98 | 102 | 101 | 98.4 | 106 | 99.3 | 104 | 106 | 108 | 85.7 | 114 | 91.7 |
| CN(C)CCc1c[nH]c2ccc(C[C@H]3COC(=O)N3)cc12 | 72 | 89.4 | 97.7 | 95.1 | 99.3 | 108 | 96 | 88.2 | 72.9 | 29.7 | 7.45 | 78.3 | 85.5 | 89 | 97 | 90.9 | 88.7 | 88.2 | 73.8 | 47.8 | 13.3 | 5.94 | 88.8 | 94 | 89.5 | 99.8 | 95.7 | 96.3 | 93.7 | 80.8 | 75.6 | 26 | 7.13 |
| O=C1C[C@@H](c2ccc(O)cc2)Oc2cc(O)cc(O)c21 | 123 | 115 | 122 | 119 | 119 | 118 | 125 | 110 | 116 | 120 | 106 | 102 | 91.4 | 79.3 | 83.3 | 91.7 | 83 | 64.5 | 77.7 | 67.2 | 80.4 | 64 | 124 | 116 | 130 | 123 | 124 | 114 | 122 | 115 | 121 | 139 | 88.5 |
| Cc1c(Cn2c(C)nc3c(C(=O)O)cc(N4CCOCC4)cc32)cccc1C(F)(F)F | 84.5 | 101 | 109 | 111 | 101 | 97.1 | 115 | 109 | 103 | 117 | 103 | 93.2 | 115 | 102 | 106 | 103 | 112 | 119 | 114 | 107 | 89.1 | 88.5 | 94.1 | 105 | 100 | 109 | 112 | 95.5 | 103 | 95.5 | 90.1 | 92.3 | 79.8 |
